{
  "source": "patent US20250186408A1",
  "about": "“TREATMENT OF PHARMACORESISTANT EPILEPSY” (Katholieke Universiteit Leuven, priority 2021, published 2025)",
  "key": {"[1]": {"biological_target": "ADRB1 (Homo sapiens, UniProt P08588)", "sequence (P08588 whole entry)": "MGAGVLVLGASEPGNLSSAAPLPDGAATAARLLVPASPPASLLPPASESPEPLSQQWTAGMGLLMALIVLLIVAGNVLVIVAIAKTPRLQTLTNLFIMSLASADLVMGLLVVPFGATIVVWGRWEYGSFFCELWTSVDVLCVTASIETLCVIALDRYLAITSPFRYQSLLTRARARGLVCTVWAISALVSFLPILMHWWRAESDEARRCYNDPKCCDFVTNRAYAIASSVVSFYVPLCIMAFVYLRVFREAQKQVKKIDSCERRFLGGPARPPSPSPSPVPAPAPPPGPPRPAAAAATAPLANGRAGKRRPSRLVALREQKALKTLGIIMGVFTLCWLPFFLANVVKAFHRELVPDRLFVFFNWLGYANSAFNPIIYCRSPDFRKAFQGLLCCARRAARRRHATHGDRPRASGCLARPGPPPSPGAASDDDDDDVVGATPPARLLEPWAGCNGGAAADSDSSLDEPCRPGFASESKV", "assay": "cAMP ADRB1 Agonist", "assay_type": "cell-based", "details": "for Emax: read-out: Max response", "description": "cAMP Hunter cell lines were expanded from freezer stocks. […] For Gi agonist determination, cells were incubated with sample in the presence of EC80 forskolin to induce response. For both conditions, media was aspirated from cells and replaced with 15 μL 2:1 HBSS/10 mM HEPES:cAMP XS+ Ab reagent. […] 5 μL of 4× sample was added to cells and incubated at 37° C. or room temperature (RT) for 30 or 60 min. Final assay vehicle concentration was 1%. […] Media was aspirated from cells and replaced with 10 μL 1:1 HBSS/HEPES:cAMP XS+ Ab reagent. […] For Gi coupled GPCRs, EC80 forskolin was included. […] Compound activity was analyzed using CBIS data analysis suite (ChemInnovation, CA)."}, "[2]": {"biological_target": "T1, MAOA (Homo sapiens, UniProt P21397)", "T1 construct": "purchased Sigma", "T1 sequence (P21397 1-527)": "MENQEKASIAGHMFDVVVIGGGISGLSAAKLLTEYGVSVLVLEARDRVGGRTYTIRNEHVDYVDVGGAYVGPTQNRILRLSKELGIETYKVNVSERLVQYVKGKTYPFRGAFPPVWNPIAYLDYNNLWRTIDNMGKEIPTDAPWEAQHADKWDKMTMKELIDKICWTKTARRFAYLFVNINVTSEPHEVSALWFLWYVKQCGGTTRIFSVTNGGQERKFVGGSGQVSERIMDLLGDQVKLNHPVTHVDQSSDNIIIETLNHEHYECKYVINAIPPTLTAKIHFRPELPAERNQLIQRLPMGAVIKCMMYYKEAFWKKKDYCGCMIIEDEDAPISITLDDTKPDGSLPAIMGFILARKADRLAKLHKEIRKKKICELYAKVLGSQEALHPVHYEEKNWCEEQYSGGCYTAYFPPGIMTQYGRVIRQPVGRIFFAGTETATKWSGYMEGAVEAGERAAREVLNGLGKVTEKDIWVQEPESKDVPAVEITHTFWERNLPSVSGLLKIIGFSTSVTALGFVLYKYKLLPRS", "assay": "Enzymatic MAOA Inhibitor", "assay_type": "biochemical", "details": "for Emax: read-out: Max response", "description": "(§1) Enzyme preparations were sourced from various vendors-AChE (R&D Systems), COX1 and COX2 (BPS Bioscience), MAOA (Sigma), PDE3A and PDE4D2 (Signal Chem). AChE: enzyme and test compound were pre-incubated for 15 min at RT before substrate addition. Acetylthiocholine and DTNB were added and incubated at RT for 30 min. Signal was detected by measuring absorbance at 405 nm. COX1 and COX2: enzyme stocks were diluted in assay buffer (40 mM Tris-HCl, 1×PBS, 0.5 mM Phenol, 0.01% Tween 20 and 10 nM Hematin) and allowed to equilibrate with compounds at RT for 30 min (binding incubation). Arachidonic acid (1.7 μM) and Ampliflu Red (2.5 μM) were prepared and dispended into a reaction plate. Plates were read immediately on a fluorimeter with the emission detection at 590 nm and excitation wavelength 544 nm. MAOA: enzyme and test compound were pre-incubated for 15 min at 37° C. before substrate addition. The reaction was initiated by addition of kynuramine and incubated at 37° C. for 30 min. The reaction was terminated by addition of NaOH. The amount of 4-hydroquinoline formed was determined through spectrofluorometric readout with the emission detection at 380 nm and excitation wavelength 310 nm. PDE3A and PDE4D2: enzyme and test compound were pre-incubated for 15 min at RT before substrate addition. cAMP substrate (at a concentration equal to EC80) was added and incubated at RT for 30 min. Enzyme reaction was terminated by addition of 9 mM IBMX. Signal was detected using the HitHunter® cAMP detection kit. Microplates were transferred to a PerkinElmer Envision™ instrument and read out as described for each assay. […] For enzyme activity assays, percentage inhibition was calculated using the following equation: […]"}, "[3]": {"biological_target": "T2, NET (Homo sapiens, UniProt P23975)", "T2 construct": "Eurofins DiscoverX Corporation 87-1003DR; host or cells: unnamed cell lines", "T2 sequence (P23975 whole entry)": "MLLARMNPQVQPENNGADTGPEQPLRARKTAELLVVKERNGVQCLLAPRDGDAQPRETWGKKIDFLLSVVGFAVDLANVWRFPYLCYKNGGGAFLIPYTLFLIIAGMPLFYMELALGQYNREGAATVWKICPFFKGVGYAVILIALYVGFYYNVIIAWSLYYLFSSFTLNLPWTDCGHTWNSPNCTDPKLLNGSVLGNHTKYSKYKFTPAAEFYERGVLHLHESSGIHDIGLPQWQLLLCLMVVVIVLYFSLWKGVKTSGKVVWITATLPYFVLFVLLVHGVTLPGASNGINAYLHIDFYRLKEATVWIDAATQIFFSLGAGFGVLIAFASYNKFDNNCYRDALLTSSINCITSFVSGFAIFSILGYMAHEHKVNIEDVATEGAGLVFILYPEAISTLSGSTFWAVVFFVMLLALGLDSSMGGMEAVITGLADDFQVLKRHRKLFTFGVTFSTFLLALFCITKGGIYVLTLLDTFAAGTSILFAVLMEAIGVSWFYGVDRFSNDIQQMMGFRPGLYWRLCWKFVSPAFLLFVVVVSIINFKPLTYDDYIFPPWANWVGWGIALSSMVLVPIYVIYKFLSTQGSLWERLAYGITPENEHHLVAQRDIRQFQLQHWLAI", "assay": "Transporter NET Blocker", "assay_type": "cell-based", "details": "for Emax: Transporter NET Blocker, read-out: Max response", "description": "After cell plating and incubation, media was removed an 25 μL of 1× compound in 1×HBSS/0.1% BSA was added. Compounds were incubated with cells for 30 min at 37° C. After compound incubation, 25 μL of 1× dye loading buffer (1× dye, 1×HBSS/20 mM HEPES) was added to the wells. Cells were incubated for 30-60 min at 37° C. After incubation, microplates were transferred to a PerkinElmer Envision™ instrument for fluorescent signal detection. […] For blocker mode assays, percentage of inhibition was calculated using the following formula: […]"}, "[4]": {"biological_target": "T3, PDE4D2 (Homo sapiens, UniProt Q08499)", "T3 construct": "purchased Signal Chem", "T3 sequence (Q08499 303-809 limits assumed)": "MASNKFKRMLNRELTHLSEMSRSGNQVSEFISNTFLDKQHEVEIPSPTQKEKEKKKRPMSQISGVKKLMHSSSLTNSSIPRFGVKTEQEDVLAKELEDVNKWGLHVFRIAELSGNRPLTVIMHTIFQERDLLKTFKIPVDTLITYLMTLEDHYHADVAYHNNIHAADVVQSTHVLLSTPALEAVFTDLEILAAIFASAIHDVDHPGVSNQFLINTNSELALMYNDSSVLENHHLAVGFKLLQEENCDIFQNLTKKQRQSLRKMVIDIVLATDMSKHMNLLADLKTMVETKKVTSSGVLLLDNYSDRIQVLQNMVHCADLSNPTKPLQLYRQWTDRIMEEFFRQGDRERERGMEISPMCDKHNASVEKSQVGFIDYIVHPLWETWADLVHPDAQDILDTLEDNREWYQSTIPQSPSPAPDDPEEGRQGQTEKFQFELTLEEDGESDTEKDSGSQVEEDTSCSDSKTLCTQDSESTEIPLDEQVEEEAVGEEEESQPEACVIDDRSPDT", "assay": "Enzymatic PDE4D2 Inhibitor", "assay_type": "biochemical", "details": "for pIC50: read-out: RC50, result type IC50; for Emax: read-out: Max response", "description": "as §1"}, "[5]": {"biological_target": "T4, CCKAR (Homo sapiens, UniProt P32238)", "T4 sequence (P32238 1-428)": "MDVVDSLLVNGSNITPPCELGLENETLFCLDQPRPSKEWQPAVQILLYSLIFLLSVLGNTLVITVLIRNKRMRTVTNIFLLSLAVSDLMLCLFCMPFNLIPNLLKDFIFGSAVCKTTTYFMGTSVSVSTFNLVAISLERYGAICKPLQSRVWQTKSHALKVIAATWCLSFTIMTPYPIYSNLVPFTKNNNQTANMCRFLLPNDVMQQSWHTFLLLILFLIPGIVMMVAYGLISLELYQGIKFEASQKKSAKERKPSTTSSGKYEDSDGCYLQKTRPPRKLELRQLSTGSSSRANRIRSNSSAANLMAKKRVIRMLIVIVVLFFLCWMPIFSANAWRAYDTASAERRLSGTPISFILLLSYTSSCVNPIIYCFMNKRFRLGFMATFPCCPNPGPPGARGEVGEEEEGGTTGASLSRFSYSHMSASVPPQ", "assay": "Calcium Flux CCKAR Antagonist", "assay_type": "cell-based", "details": "for pIC50: read-out: RC50, result type IC50; for Emax: read-out: Max response", "description": "(≤0.2% DMSO concentration). Assays were performed in 1× dye loading buffer consisting of 1× Dye (DiscoverX, Calcium No Wash^PLUS kit, Catalog No. 90-0091), 1× Additive A and 2.5 mM Probenecid in HBSS/20 mM HEPES. Probenecid was prepared fresh. Prior to testing, media was aspirated from cells and replaced with 25 μL dye loading buffer. Cells were incubated for 45 min at 37° C. and then 20 min at RT. For agonist determination, 25 μL of 2× compound in HBSS/20 mM HEPES was added using a FLIPR Tetra (MDS). […] 25 μL of 2× sample was added and cells were incubated for 30 min at RT in the dark to equilibrate plate temperature. After incubation, antagonist determination was initiated by addition of 25 μL of 1× compound with 3×EC80 agonist using FLIPR. For both agonist and antagonist formats, activity was measure on a FLIPR Tetra (MDS). Calcium mobilization was monitored for 2 min with a 5 sec baseline read.\nFLIPR read—Area under the curve, was calculated for the entire 2 min read."}},
  "note": "pEC50, pIC50: −log10 of the molar value. Read-outs that look alike come from different tables or passages of the source.",
  "data": [
    {"smiles": "CC(C)(C)c1ccc(C#CC(O)c2ccccc2)cc1", "note": "(racemic) [Compound 3.3, rac-3-(4-(tert-butyl)phenyl)-1-phenylprop-2-yn-1-ol]", "values": [
      {"measurement": "pEC50", "setting": "[1]", "result": "< 5.00"},
      {"measurement": "Emax", "setting": "[1]", "result": 0.6, "unit": "%"},
      {"measurement": "pIC50", "setting": "[2]", "result": "< 5.00"},
      {"measurement": "Emax", "setting": "[2]", "result": 4.4, "unit": "%"},
      {"measurement": "pIC50", "setting": "[3]", "result": "< 5.00"},
      {"measurement": "Emax", "setting": "[3]", "result": 0, "unit": "%"},
      {"measurement": "pIC50", "setting": "[4]; Enzymatic PDE4D2 Inhibitor", "result": "< 5.00"},
      {"measurement": "Emax", "setting": "[4]", "result": 0, "unit": "%"},
      {"measurement": "pIC50", "setting": "[5]; Calcium Flux CCKAR Antagonist", "result": "< 5.00"},
      {"measurement": "Emax", "setting": "[5]", "result": 0, "unit": "%"}
    ]},
    {"smiles": "Clc1cccc(C#Cc2n[nH]c3ncccc23)c1", "note": "[Compound 10.1, 3-((3-chlorophenyl)ethynyl)-1H-pyrazolo[3,4-b]pyridine]", "values": [
      {"measurement": "Emax", "setting": "[1]; cAMP ADRB1 Agonist", "result": 0, "unit": "%"},
      {"measurement": "pEC50", "setting": "[1]; cAMP ADRB1 Agonist, read-out: RC50, result type EC50", "result": "< 5.00"},
      {"measurement": "Emax", "setting": "[2]; Enzymatic MAOA Inhibitor", "result": 12.4, "unit": "%"},
      {"measurement": "pIC50", "setting": "[2]; Enzymatic MAOA Inhibitor, read-out: RC50, result type IC50", "result": "< 5.00"},
      {"measurement": "pIC50", "setting": "[3]", "result": "< 5.00"},
      {"measurement": "Emax", "setting": "[3]", "result": 13.6, "unit": "%"},
      {"measurement": "Emax", "setting": "[4]; Enzymatic PDE4D2 Inhibitor", "result": 2.7, "unit": "%"},
      {"measurement": "pIC50", "setting": "[4]; Enzymatic PDE4D2 Inhibitor", "result": "< 5.00"},
      {"measurement": "Emax", "setting": "[5]; Calcium Flux CCKAR Antagonist", "result": 0, "unit": "%"},
      {"measurement": "pIC50", "setting": "[5]; Calcium Flux CCKAR Antagonist", "result": "< 5.00"}
    ]}
  ]
}
